Measurements: publication PMC7288559 (ACS Omega, 2020)

Legend:
[1] = tested on: pancreatic carcinoma cells MIA PaCa-2; format: cell-based; settings: lactate in supernatant
recombinant human LDHA = recombinant human LDHA (Homo sapiens, UniProt P00338); assay: LDHA enzymatic assay based on NADH cofactor consumption [NAD; format: biochemical; settings: in vitro, dose-dependent
[2] = tested on: hepatocellular carcinoma cells Snu-398; format: cell-based; settings: lactate in supernatant

Structure (SMILES)	Inhibition of lactate production in cells [1]	Inhibition of lactate production by recombinant human LDHA (recombinant human LDHA)	Inhibition of lactate production in cells [2]
O=C(O)c1ccc(CN2C(=O)c3cccc(NC(=O)c4ccc(Cl)s4)c3C2=O)cc1 [Compound 3, 4-[(4-{[(5-chloro-2-thienyl)carbonyl]amino}-1,3-dioxo-1,3-dihydro-2H-isoindol-2-yl)methyl]benzoic acid]	neither 3 nor 7 showed inhibition	completely inhibited	neither 3 nor 7 showed inhibition
O=C(Nc1cccc(NS(=O)(=O)c2ccc3oc4cc([N+](=O)[O-])ccc4c3c2)c1)C1(O)CC1 [Compound 7, 1-hydroxy-N-(3-{[(7-nitrodibenzo[b,d]furan-2-yl)sulfonyl]amino}phenyl)cyclopropanecarboxamide]	neither 3 nor 7 showed inhibition	completely inhibited	neither 3 nor 7 showed inhibition
